Data on 1 compound can be found in patent US6566368B2, “Apomorphine-containing dosage form for ameliorating male erectile dysfunction” (Pentech Pharmaceuticals, Inc., priority 1994, dated 2003).

In data set [1] the test system is men with psychogenic male erectile dysfunction (MED). Nature of the data set: Pilot Study #6: safety and tolerance of escalating APO doses (adverse events, serum chemistry, vital signs).
Description: A clinical study of patient tolerance of escalating doses in sublingual tablet administration of APO for the treatment of psychogenic male erectile dysfunction was performed.
In the second phase, subjects returned to the clinic for four visits, each visit one week apart. Subjects received one sublingual administration of either placebo, or 4, 6 and 8 mg APO at each visit. Doses of APO were administered in ascending order with the placebo being randomly assigned for use at one of the four visits. The procedures performed before and after drug administration were the same as those in the first phase.
Fifty males with psychogenic MED were enrolled in this three phase trial. The first aim of this study was to determine the safety and tolerance of APO in the treatment of MED.
Another data set can be described thus: clinical. The following applies: male, human, in vivo; for clearance: Cl.

Molecules are shown by their SMILES. Like-named read-outs stand apart in the source and are kept apart here.

For orientation: Vd means a proportionality between amount in the body and measured concentration, not a real space. As a reminder, the clearance is the volume of plasma or blood freed of the substance per unit of time. The term AUC(0-inf) denotes the area under the concentration-time curve extrapolated to infinity. A high value points to high exposure. As a reminder, the Cmax is the peak of the concentration-time curve.

Compound `CN1CCc2cccc3c2[C@H]1Cc1ccc(O)c(O)c1-3` [apomorphine] yielded a Ke (IV Administration, mean (Table XII)) of 0.0237 min⁻¹; a Ke (IV administration 1 mg, mean, n = 7) of 0.0237 min⁻¹; a Ke (sublingual 4 mg dose, individual subjects #1, #3, #6, #7) of 0.0060 min⁻¹; a Ke (sublingual 8 mg Dose, mean (Table XII)) of 0.0056 min⁻¹; a Ke (sublingual administration 8 mg dose, mean, n = 4) of 0.0056 min⁻¹. This compound showed a Vd (male, human, in vivo, 0.114 mg/kg) of 2.07 L/kg; a Vd in “clinical” (0.06 mg/kg) of 2.33 L/kg; a Vd in the data set “clinical” (iv, 0.01 mg/kg) of 3.35 L/kg. In addition, in data set [1] (4, 6, 8 mg sublingual, with bradycardia, dizziness, syncope, pallor), the “cardiovascular and other adverse events” value is listed as “Hypotension was reported as an adverse event in some subjects”. Also, in data set [1] (all administered doses), the incidence of vomiting result was “less than 3%”. The “nausea cases considered severe” value in data set [1] (all administered doses) is “two”. Besides, the “overall incidence of nausea” value in data set [1] (all administered doses (4, 6, 8 mg sublingual)) is given as “less than 13 % of the subjects”. The “changes in serum chemistry values and vital signs” value in data set [1] (except one subject with abnormal liver function of unknown origin) is on record as “no clinically significant changes”. The clearance in the data set “clinical” (iv, 0.01 mg/kg) was 72.8 mL/min/kg; in “clinical” (iv, 1 mg) it was 5100 mL/min. In the data set “clinical” (iv, 1 mg, AUC (0-inf)), this compound showed an AUC(0-inf) of 3.45 ng·h/mL. The Cmax in the data set “clinical” (iv, Cmax) was determined as 8.36 ng/mL.
